{
  "source": "patent US20240092727A1",
  "about": "“CRYSTALLINE 4-((L-VALYL)OXY)BUTANOIC ACID” (XWPHARMA LTD., priority 2022, published 2024)",
  "key": {"[1]": {"experiment": "Sealed storage stability study (ICH Q1A (R2)), four storage conditions, 3- and 6-month timepoints", "type": "physicochemical", "design": "key to Crystalline Form: C = Conforms; N/A = Not Applicable", "settings": "for Crystalline Form: XRPD; for Crystalline Form / Assay / Total Impurities / Water Content: sealed storage", "from_the_text": "(§1) “Sealed storage stability” refers to the stability of a compound that is enclosed within two sealed polyethylene bags with a desiccant material placed between the two polyethylene bags and the two sealed polyethylene bags are enclosed within a sealed one-layer aluminum bag.\nCrystalline 4-((L-valyl)oxy)butanoic acid was packaged in double low-density polyethylene (LDPE) zipper bags and sealed. The packaged samples were then placed within an aluminum foil outer bag (polyethylene, polyethylene terephthalate three-layer composite) and sealed. The fully packaged samples were placed in stability chambers for the duration of the sealed storage stability study.\nSealed storage stability studies were carried out under four sets of conditions external to the packaged crystalline 4-((L-valyl)oxy)butanoic acid: • 1. Accelerated conditions ([…], 75±5% RH). • 2. Intermediate storage condition ([…], 65±5% RH). • 3. Long-term storage condition (25±2° C., […]). • 4. 2-8° C. conditions.\nThe sealed storage stability of crystalline 4-((L-valyl)oxy)butanoic acid (1) was tested according to the International Council for Harmonization of Technical Requirements for Pharmaceuticals for Human Use (ICH) document Q1A (R2) “Stability Testing of New Drug Substances and Products.” Accordingly, samples were pulled at 3- and 6-month timepoints. The assay percentage of the crystalline 4-((L-valyl)oxy)butanoic acid was determined by electrochemical titration using acetic acid as the solvent and perchloric acid as the titrant. Water content was tested by Karl Fischer titration (Karl Fisher Titrator: Mettler V30). Impurities were measured by HPLC (HPLC Instrument: Waters Arc HPLC system with CAD; Column: Waters Atlantis T3, 4.6×150 mm, 3 μm). The samples were analyzed by XRPD analysis (XRPD Instrument: Bruker D8 advance). The sealed storage stability results of crystalline 4-((L-valyl)oxy)butanoic acid stored under the four storage conditions are summarized in Table 2."}, "[2]": {"experiment": "Sealed storage stability, other studies, 36 months", "type": "physicochemical", "settings": "25±2° C., for 36 months; stable = absorbs less than 2 wt % water and impurity content of less than 2 wt %", "from_the_text": "as §1\nStability is defined as the sample of crystalline 4-((L-valyl)oxy)butanoic acid absorbs less than 2 wt % water and an impurity content of less than 2 wt % for a period of time under the indicated sealed storage conditions."}, "[3]": {"settings": "up to 6 months under all sealed storage conditions"}},
  "data": [
    {"smiles": "CC(C)[C@H](N)C(=O)OCCCC(=O)O", "note": "[4-((L-valyl)oxy)butanoic acid]", "values": [
      {"measurement": "Crystalline Form", "setting": "[1]; 2-8° C., 6 M", "result": "C"},
      {"measurement": "Crystalline Form", "setting": "[1]; 2-8° C., D 0", "result": "C"},
      {"measurement": "Crystalline Form", "setting": "[1]; 25 ± 2° C., 60 ± 5% RH, 6 M", "result": "C"},
      {"measurement": "Crystalline Form", "setting": "[1]; 25 ± 2° C., 60 ± 5% RH, D 0", "result": "C"},
      {"measurement": "Crystalline Form", "setting": "[1]; 30 ± 2° C., 65 ± 5% RH, 3 M", "result": "C"},
      {"measurement": "Crystalline Form", "setting": "[1]; 30 ± 2° C., 65 ± 5% RH, 6 M", "result": "C"},
      {"measurement": "Crystalline Form", "setting": "[1]; 30 ± 2° C., 65 ± 5% RH, D 0", "result": "C"},
      {"measurement": "Crystalline Form", "setting": "[1]; 40 ± 2° C., 75 ± 5% RH, 6 M", "result": "C"},
      {"measurement": "Crystalline Form", "setting": "[1]; 40 ± 2° C., 75 ± 5% RH, D 0", "result": "C"},
      {"measurement": "Assay", "setting": "[1]; 2-8° C., 3 M", "result": 98.8, "unit": "wt %"},
      {"measurement": "Total Impurities", "setting": "[1]; 2-8° C., 3 M", "result": 0.4, "unit": "wt %"},
      {"measurement": "Water Content", "setting": "[1]; 2-8° C., 3 M", "result": 0.2, "unit": "wt %"},
      {"measurement": "Assay", "setting": "[1]; 2-8° C., 6 M", "result": 99.8, "unit": "wt %"},
      {"measurement": "Total Impurities", "setting": "[1]; 2-8° C., 6 M", "result": 0.2, "unit": "wt %"},
      {"measurement": "Water Content", "setting": "[1]; 2-8° C., 6 M", "result": 0.3, "unit": "wt %"},
      {"measurement": "Assay", "setting": "[1]; 2-8° C., D 0", "result": 99.4, "unit": "wt %"},
      {"measurement": "Total Impurities", "setting": "[1]; 2-8° C., D 0", "result": 0.3, "unit": "wt %"},
      {"measurement": "Water Content", "setting": "[1]; 2-8° C., D 0", "result": 0.1, "unit": "wt %"},
      {"measurement": "Assay", "setting": "[1]; 25 ± 2° C., 60 ± 5% RH, 3 M", "result": 98.8, "unit": "wt %"},
      {"measurement": "Total Impurities", "setting": "[1]; 25 ± 2° C., 60 ± 5% RH, 3 M", "result": 0.5, "unit": "wt %"},
      {"measurement": "Water Content", "setting": "[1]; 25 ± 2° C., 60 ± 5% RH, 3 M", "result": 0.2, "unit": "wt %"},
      {"measurement": "Assay", "setting": "[1]; 25 ± 2° C., 60 ± 5% RH, 6 M", "result": 99.3, "unit": "wt %"},
      {"measurement": "Total Impurities", "setting": "[1]; 25 ± 2° C., 60 ± 5% RH, 6 M", "result": 0.4, "unit": "wt %"},
      {"measurement": "Water Content", "setting": "[1]; 25 ± 2° C., 60 ± 5% RH, 6 M", "result": 0.3, "unit": "wt %"},
      {"measurement": "Assay", "setting": "[1]; 25 ± 2° C., 60 ± 5% RH, D 0", "result": 99.4, "unit": "wt %"},
      {"measurement": "Total Impurities", "setting": "[1]; 25 ± 2° C., 60 ± 5% RH, D 0", "result": 0.3, "unit": "wt %"},
      {"measurement": "Water Content", "setting": "[1]; 25 ± 2° C., 60 ± 5% RH, D 0", "result": 0.1, "unit": "wt %"},
      {"measurement": "Assay", "setting": "[1]; 30 ± 2° C., 65 ± 5% RH, 3 M", "result": 99.9, "unit": "wt %"},
      {"measurement": "Total Impurities", "setting": "[1]; 30 ± 2° C., 65 ± 5% RH, 3 M", "result": 0.4, "unit": "wt %"},
      {"measurement": "Water Content", "setting": "[1]; 30 ± 2° C., 65 ± 5% RH, 3 M", "result": 0.4, "unit": "wt %"},
      {"measurement": "Assay", "setting": "[1]; 30 ± 2° C., 65 ± 5% RH, 6 M", "result": 99.3, "unit": "wt %"},
      {"measurement": "Total Impurities", "setting": "[1]; 30 ± 2° C., 65 ± 5% RH, 6 M", "result": 0.4, "unit": "wt %"},
      {"measurement": "Water Content", "setting": "[1]; 30 ± 2° C., 65 ± 5% RH, 6 M", "result": 0.1, "unit": "wt %"},
      {"measurement": "Assay", "setting": "[1]; 30 ± 2° C., 65 ± 5% RH, D 0", "result": 99.4, "unit": "wt %"},
      {"measurement": "Total Impurities", "setting": "[1]; 30 ± 2° C., 65 ± 5% RH, D 0", "result": 0.3, "unit": "wt %"},
      {"measurement": "Water Content", "setting": "[1]; 30 ± 2° C., 65 ± 5% RH, D 0", "result": 0.1, "unit": "wt %"},
      {"measurement": "Assay", "setting": "[1]; 40 ± 2° C., 75 ± 5% RH, 3 M", "result": 98.8, "unit": "wt %"},
      {"measurement": "Total Impurities", "setting": "[1]; 40 ± 2° C., 75 ± 5% RH, 3 M", "result": 0.6, "unit": "wt %"},
      {"measurement": "Water Content", "setting": "[1]; 40 ± 2° C., 75 ± 5% RH, 3 M", "result": 0.1, "unit": "wt %"},
      {"measurement": "Assay", "setting": "[1]; 40 ± 2° C., 75 ± 5% RH, 6 M", "result": 99.3, "unit": "wt %"},
      {"measurement": "Total Impurities", "setting": "[1]; 40 ± 2° C., 75 ± 5% RH, 6 M", "result": 0.7, "unit": "wt %"},
      {"measurement": "Water Content", "setting": "[1]; 40 ± 2° C., 75 ± 5% RH, 6 M", "result": 0.3, "unit": "wt %"},
      {"measurement": "Assay", "setting": "[1]; 40 ± 2° C., 75 ± 5% RH, D 0", "result": 99.4, "unit": "wt %"},
      {"measurement": "Total Impurities", "setting": "[1]; 40 ± 2° C., 75 ± 5% RH, D 0", "result": 0.3, "unit": "wt %"},
      {"measurement": "Water Content", "setting": "[1]; 40 ± 2° C., 75 ± 5% RH, D 0", "result": 0.1, "unit": "wt %"},
      {"measurement": "Chemical stability of the crystalline sample", "setting": "[1]; [3]", "result": "chemically stable"},
      {"measurement": "Sealed storage stability", "setting": "[1]; [3]", "result": "stable"},
      {"measurement": "Sealed storage stability", "setting": "[2]", "result": "sealed storage stable"}
    ]}
  ]
}
